Measurements from paper PMC12152883, “Bile acids inhibit equilibrative adenosine transport to alter adenosine receptor signaling in cholestasis” (The Journal of Biological Chemistry, 2025).
Where “and” joins values, the source holds several entries; their conditions need not be identical. Equal values may be shown once.

What was measured:
[1] = biological target: T1, ENT2 (Homo sapiens, UniProt Q14542); experiment: Inhibition of 3H-nucleoside influx by BAs in ENT2-expressing Xenopus oocytes; type: cell-based; set-up: expressed in transfected cells; host or cells: Xenopus laevis oocytes injected with in vitro-transcribed capped mRNA from pOX-hENT2; conditions: for IC50 / ENT2 % uptake inhibition (Ado): 3H-Ado 20 μM, sodium-free buffer; for IC50: read-out: ENT2 IC50 (Ado uptake)
T1 sequence (Q14542 1-456): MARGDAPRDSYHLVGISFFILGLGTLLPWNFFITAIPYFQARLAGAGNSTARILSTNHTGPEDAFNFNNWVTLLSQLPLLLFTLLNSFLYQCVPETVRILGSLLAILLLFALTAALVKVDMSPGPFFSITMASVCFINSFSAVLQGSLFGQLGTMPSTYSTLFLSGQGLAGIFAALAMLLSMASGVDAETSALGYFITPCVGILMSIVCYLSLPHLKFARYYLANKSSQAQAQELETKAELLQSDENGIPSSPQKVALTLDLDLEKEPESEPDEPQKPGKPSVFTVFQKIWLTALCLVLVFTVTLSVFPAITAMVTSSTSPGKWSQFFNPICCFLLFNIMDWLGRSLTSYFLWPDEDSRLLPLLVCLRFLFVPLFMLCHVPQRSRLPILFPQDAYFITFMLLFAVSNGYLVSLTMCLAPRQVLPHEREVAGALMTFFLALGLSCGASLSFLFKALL
Description: (§1) We expressed individual ENTs (ENT1, ENT2, and ENT3) in X. laevis oocytes (as described above) and analyzed the Ado influx from each of the ENTs in the presence of different BAs to better understand whether the inhibition profiles differ across human ENTs. […] We also conducted an analysis of the concentration-dependent inhibition of Ado transport to estimate the IC50 values of the BAs (Fig. 4, D–F and Table 2).
(§2) Inhibition of Ado influx in H2O- and ENT-injected oocytes by treatment with different BAs at 100 μM. D–F, concentration-dependent inhibition of Ado influx in ENT-injected oocytes by different BAs. The bars represent the mean ± SD (n = 8–12 oocytes). A representative experiment from 3 to 5 independent experiments is presented. Statistical analysis was performed using one-way ANOVA with Dunnett’s multiple comparisons test; ∗p < 0.032, ∗∗p < 0.0021, ∗∗∗∗p < 0.0001.
(§3) The generated pOX expression constructs were linearized with either the Not1 or Sac1 restriction enzymes. The digested products were purified via phenol‒chloroform extraction. The mRNAs were synthesized using mMESSAGE mMACHINE (Ambion) transcription kits according to the manufacturer’s instructions. The mRNAs were purified via lithium precipitation. Oocytes were procured from Ecocyte. Prior to experiments, procured oocytes were defolliculated by treating with collagenase A-OR II solution followed by washing with Barth’s solution. Following microscopic verification, selected oocytes were incubated to recover overnight at 25 °C in a shaker incubator. Fifty nanoliters (400–800 ng/μl) of equal amounts of mRNAs were injected into defolliculated oocytes the next day. Expression of plasmids was analyzed after RNA isolation from oocyte extracts and conducting qPCR analysis with gene-specific primers as described earlier ([30]). The injected oocytes were incubated at 15 °C for 24 h before transport assays were performed. […] Uptake was terminated by washing the oocytes three times with arrest buffer containing 20 mM uridine. Individual oocytes were shaken overnight in 10% SDS for complete dissolution, and then the radioactivity was quantified with a Beckman liquid scintillation counter. The data are presented as the mean ± SD (n = 8–12 oocytes). A representative experiment from 3 to 5 independent experiments is presented.

[2] = biological target: T2, ENT3 (Homo sapiens, UniProt Q9BZD2); experiment: Inhibition of 3H-nucleoside influx by BAs in ENT3-expressing Xenopus oocytes; type: cell-based; conditions: for IC50 / ENT3 % uptake inhibition (Ado): 3H-Ado 20 μM, sodium-free buffer; for IC50: read-out: ENT3 IC50 (Ado uptake)
T2 construct: plasma membrane–directed ENT3 with a truncated N-terminus (that harbors lysosomal targeting motif); expressed in transfected cells; host or cells: Xenopus laevis oocytes injected with in vitro-transcribed mRNA from pOX-Δ36hENT3
T2 sequence (Q9BZD2 with tags, fused parts or gaps): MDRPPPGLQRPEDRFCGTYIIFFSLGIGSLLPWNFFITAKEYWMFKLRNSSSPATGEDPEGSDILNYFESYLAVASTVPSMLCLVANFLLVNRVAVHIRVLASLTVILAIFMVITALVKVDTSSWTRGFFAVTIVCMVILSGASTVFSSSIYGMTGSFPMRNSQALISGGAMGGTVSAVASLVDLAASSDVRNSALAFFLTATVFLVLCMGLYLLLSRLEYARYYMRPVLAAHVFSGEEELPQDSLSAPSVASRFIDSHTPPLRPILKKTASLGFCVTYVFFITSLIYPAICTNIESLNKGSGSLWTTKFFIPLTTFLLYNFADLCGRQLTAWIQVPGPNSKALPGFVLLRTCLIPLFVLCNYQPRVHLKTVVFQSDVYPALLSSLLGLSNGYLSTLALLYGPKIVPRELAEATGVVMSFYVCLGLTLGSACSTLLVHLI
Description: as §1, §2, §3

[3] = biological target: T3, ENT1 (Homo sapiens, UniProt Q99808); experiment: Inhibition of 3H-nucleoside influx by BAs in ENT1-expressing Xenopus oocytes; type: cell-based; conditions: 3H-Ado 20 μM, sodium-free buffer; for IC50: read-out: ENT1 IC50 (Ado uptake); for ENT1 % uptake inhibition (Ado): BA 100 μM
T3 construct: The complete ORF of ENT1 (amplified using forward primer); expressed in transfected cells; host or cells: Xenopus laevis oocytes injected with in vitro-transcribed capped mRNA from pOX-hENT1
T3 sequence (Q99808 1-456): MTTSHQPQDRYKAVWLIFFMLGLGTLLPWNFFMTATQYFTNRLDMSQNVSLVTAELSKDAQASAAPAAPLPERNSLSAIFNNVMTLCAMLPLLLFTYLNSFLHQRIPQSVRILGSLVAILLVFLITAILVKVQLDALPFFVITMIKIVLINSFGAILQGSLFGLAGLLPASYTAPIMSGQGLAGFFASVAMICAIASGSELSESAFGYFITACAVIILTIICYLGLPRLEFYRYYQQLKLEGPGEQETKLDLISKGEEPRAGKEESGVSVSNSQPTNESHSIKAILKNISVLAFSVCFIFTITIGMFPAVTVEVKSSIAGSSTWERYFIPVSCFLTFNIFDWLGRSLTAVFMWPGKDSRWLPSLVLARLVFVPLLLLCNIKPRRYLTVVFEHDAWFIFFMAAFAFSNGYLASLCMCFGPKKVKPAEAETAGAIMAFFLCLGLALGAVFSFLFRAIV
Description: as §1, §2, §3

[4] = biological target: T1, ENT2; experiment: BA transport by ENT2-injected oocytes quantified by LC-MS/MS; type: cell-based; set-up: expressed in transfected cells; host or cells: Xenopus laevis oocytes injected with in vitro-transcribed capped mRNA from pOX-hENT2; conditions: pH 7.4, p < 0.001 compared with water-injected oocytes
Description: Therefore, we studied several different BAs and used a liquid chromatography–tandem mass spectrometry (LC‒MS/MS) method to quantify the transport activity of H2O-injected and ENT2 mRNA-injected oocytes using TCA as a positive control. […] We subsequently tested the ability of ENT2 to transport BAs at different physiological pH values ranging from pH 5.5 to pH 7.4 by varying the pH of the transport buffers in which the assay was conducted.
The mass spectrometric validation of the transport of all metabolites was performed with oocytes using a previously reported method ([24]). […] After an incubation at 4 °C for 24 h, the samples were centrifuged at 20,000g for 10 min, and the supernatants were collected. The samples (10 μl) were injected into a Thermo Scientific Vanquish UPLC system interfaced with a Thermo Scientific TSQ Quantiva triple-stage quadrupole mass spectrometer equipped with an H-ESI ion source. MS detection was conducted in negative ionization mode, and the transitions monitored for each metabolite are listed in Sup. Table S2. The operational mass spectrometric parameters included a capillary voltage of 4.5 kV; sheath gas of 35 arbitrary units; auxiliary gas of 10 arbitrary units; sweep gas of two arbitrary units; ion transfer tube temperature of 350 °C; vaporizer temperature of 450 °C; dwell time of 50 ms per transition; collision energy of 5 V; and collision-induced dissociation gas of 1.5 mTorr. Chromatographic separation was performed on a Kinetex […] (100 × 2.1 mm; 1.7 μm particle size) from Phenomenex. The mobile phase consisted of solvent A: water (0.1% formic acid) and solvent B: acetonitrile (0.1% formic acid). The flow rate was set at 0.3 ml/min, and the autosampler was maintained at 4 °C throughout the analysis.

[5] = biological target: T1, ENT2; experiment: Inhibition of 3H-CA transport by ENT2 in oocytes by nucleoside transporter inhibitors; type: cell-based; set-up: expressed in transfected cells; host or cells: Xenopus laevis oocytes injected with in vitro-transcribed capped mRNA from pOX-hENT2; conditions: inhibitor at 10 μM (Fig. 2D legend 100 μM), pH 7.4
Description: Next, we asked whether the transport patterns of the above BAs mediated by ENT2 are similar to those of nucleoside transport in terms of pharmacological inhibition or pH-dependent properties.
Oocytes were procured from Ecocyte. Prior to experiments, procured oocytes were defolliculated by treating with collagenase A-OR II solution followed by washing with Barth’s solution. Following microscopic verification, selected oocytes were incubated to recover overnight at 25 °C in a shaker incubator. Fifty nanoliters (400–800 ng/μl) of equal amounts of mRNAs were injected into defolliculated oocytes the next day. […] The injected oocytes were incubated at 15 °C for 24 h before transport assays were performed. The uptake of radiolabeled substrates was measured after a 30 min incubation in transport buffer (100 mM NaCl, 2 mM KCl, 1 mM CaCl2, 1 mM MgCl2, and 10 mM Hepes, pH 7.4) at room temperature. Uptake was terminated by washing the oocytes three times with arrest buffer containing 20 mM uridine. Individual oocytes were shaken overnight in 10% SDS for complete dissolution, and then the radioactivity was quantified with a Beckman liquid scintillation counter. The data are presented as the mean ± SD (n = 8–12 oocytes). A representative experiment from 3 to 5 independent experiments is presented.

[6] = biological target: ENT1; conditions: classical nucleoside transporter inhibitors; no reference given; cited from earlier work
[7] = biological target: ENT2; conditions: classical nucleoside transporter inhibitors; no reference given; cited from earlier work

Compound | IC50 [1] | ENT2 % uptake inhibition (Ado) ([1]; BA 100 μM) | IC50 [2] | ENT3 % uptake inhibition (Ado) ([2]; BA 100 μM) | IC50 [3] | ENT1 % uptake inhibition (Ado) [3] | transport by ENT2 mRNA-injected vs water-injected oocytes (LC-MS/MS) [4] | further results
C[C@H](CCC(=O)O)[C@H]1CC[C@H]2[C@@H]3[C@H](O)C[C@@H]4C[C@H](O)CC[C@]4(C)[C@H]3CC[C@]12C [CDCA, chenodeoxycholic acid] | 22.9 ± 4.9 µM | 66.07% | 0.3 ± 0.1 µM | 77.0% | 24.3 ± 7 µM | 69.12% | significant transport | inhibition of guanosine transport mediated by ENT2 ([1]; BA 100 μM, 3H-guanosine 20 μM): not statistically significant
C[C@H](CCC(=O)NCC(=O)O)[C@H]1CC[C@H]2[C@@H]3[C@H](O)C[C@@H]4C[C@H](O)CC[C@]4(C)[C@H]3C[C@H](O)[C@]12C [GCA, glycocholic acid] | 16.7 ± 3.9 µM | 72.22% | 10.7 ± 4.6 µM | 68.0% | 39.5 ± 8.5 µM | 35.05% | significant transport | –
C[C@H](CCC(=O)O)[C@H]1CC[C@H]2[C@@H]3CC[C@@H]4C[C@H](O)CC[C@]4(C)[C@H]3CC[C@]12C [LCA] | 18.4 ± 4.5 µM | 71.04% | 88.8 ± 27.4 µM | 71.2% | 66.9 ± 15.4 µM | 32.59% | – | –
O=[N+]([O-])c1ccc(CSc2ncnc3c2ncn3C2OC(CO)C(O)C2O)cc1 (centres unmarked) [NBMPR, nitrobenzylthioinosine] | – | – | – | – | – | – | – | reduction of 3H-CA transport by ENT2 compared with uninhibited control [5]: 53.38%; Ki [6]: ~0.01 µM; Ki [7]: ~10 µM
C[C@H](CCC(=O)NCCS(=O)(=O)O)[C@H]1CC[C@H]2[C@@H]3[C@@H](O)C[C@@H]4C[C@H](O)CC[C@]4(C)[C@H]3CC[C@]12C [TUDCA, tauroursodeoxycholic acid] | 4.9 ± 1.1 µM | 77% and 77.30% | 35.3 ± 16.4 µM | 62.6% | 204 ± 63 µM | 42.72% | – | inhibition of guanosine transport activity of ENT3 ([2]; BA 100 μM, 3H-guanosine 20 μM): inhibited
C[C@H](CCC(=O)O)[C@H]1CC[C@H]2[C@@H]3[C@@H](O)[C@@H](O)[C@@H]4C[C@H](O)CC[C@]4(C)[C@H]3CC[C@]12C [beta-muricholic acid] | – | – | – | – | – | – | significant transport | –
COc1cc(C(=O)OCCCN2CCCN(CCCOC(=O)c3cc(OC)c(OC)c(OC)c3)CC2)cc(OC)c1OC [dilazep] | – | – | – | – | – | – | – | reduction of 3H-CA transport by ENT2 compared with uninhibited control [5]: 38.02%; Ki [6]: ~0.01 µM; Ki [7]: ~10 µM
OCCN(CCO)c1nc(N2CCCCC2)c2nc(N(CCO)CCO)nc(N3CCCCC3)c2n1 [dipyridamole] | – | – | – | – | – | – | – | reduction of 3H-CA transport by ENT2 compared with uninhibited control [5]: 34.57%; Ki [6]: ~0.01 µM; Ki [7]: ~10 µM
C[C@H](CCC(=O)O)[C@H]1CC[C@H]2[C@@H]3[C@H](O)[C@H](O)[C@@H]4C[C@H](O)CC[C@]4(C)[C@H]3CC[C@]12C [hyocholic acid] | – | – | – | – | – | – | significant transport | –
C[C@H](CCC(=O)NCCS(=O)(=O)O)[C@H]1CC[C@H]2[C@@H]3[C@@H](O)[C@@H](O)[C@@H]4C[C@H](O)CC[C@]4(C)[C@H]3CC[C@]12C [tauro-beta-muricholic acid] | – | – | – | – | – | – | significant transport | –
C[C@H](CCC(=O)O)[C@H]1CC[C@H]2[C@@H]3[C@@H](O)C[C@@H]4C[C@H](O)CC[C@]4(C)[C@H]3CC[C@]12C [ursodeoxycholic acid] | – | – | – | – | – | – | significant transport | –
